Assay results reported in patent publication US20250304933A1, “INDUCIBLE RECOMBINASE SYSTEMS” (priority 2022, published 2025).

Assays:
[1] = system: FlpoDHFR in Npm1^Frt-C Flt3^Frt-ITD bone marrow; settings: FlpoDHFR delivered as a retrovirus in a transplant model
Experimental: (§1) FIGS. 27A-27I show inducible recombinases for modeling Flt3 activation.
(§2) MSCV retroviral vectors were transfected with pCL-Eco packaging vector into 293T-17 cells using JetPRIME following the manufacturers protocol (5 ug each, 1:1). Conditioned media was collected 72 hours later and passed through a 0.45 uM filter. Virus was either used fresh or stored at −80 C for later usage. For viral infection in FIG. 4 and Extended Data 8, lineage negative bone marrow was isolated using the Mouse Hematopoietic Progenitor Cell Isolation Kit (StemCell 19856) and plated over retronectin coated 6 or 12 well plates for 2 hours in RPMI+10% FBS supplemented with Penicillin/Streptomycin, 20 ng SCF, 10 ng IL6 and 10 ng IL3. Virus and 100×HEPES was added to the wells, then plates were spun for 1 hour at 800×G at 37 C. Following spin, small molecule ligands used to activate recombinases were added to a final concentration as indicated ethanol (v/v 0.0015%), DMSO (v/v 0.1%), 4-hydroxytamoxifen (4-OHT; 400 nM), trimethoprim (TMP; 1 uM) or grazoprevir (GZV, 10 uM). Cells were harvested for flow cytometric analysis 48 hours post infection. For viral infection followed by transplantation in Extended Data 8, a similar approach was utilized with the following modifications. Donor mice were treated with 5-FU 6 days prior to harvest. […]

[2] = system: DreStaPL-ODC Flt3^GL-ITD mice; assay: complete blood counts of DreStaPL-ODC x Flt3^GL-ITD mice after GZV; format: in vivo; settings: crossed to Flt3^GL-ITD, 6-8 weeks post treatment
Experimental: Peripheral blood was isolated by submandibular bleeds. Complete blood counts were assessed on a ProCyte by IDEXX. For flow cytometry analysis whole blood was lysed with RBC lysis buffer (Biolegend). […] For whole bone marrow was isolation, the femur, hip and tibia were dissected and cleaned.

[3] = system: DreSTAPL (Dre split with HCV-derived NS3 protease); assay: DreStaPL recombination reporter assay in infected Lin- bone marrow (Rosa26:RLTG); format: cell-based, mice; settings: 10 μM
Experimental: as §1, §2

[4] = system: mice transplanted with UbcCreER-Jak2^RL bone marrow exhibiting active MPN; assay: 6-week in vivo drug trial in competitive transplant MPN mice; settings: for CD45.2 chimerism in peripheral blood: 6-week trial; for mutant cell fraction in LSK stem-cell enriched population (mean): bone marrow; for mutant cell fraction in LSK stem-cell enriched population (mean) / Hct / spleen weights (mean): conclusion of 6-week trial; for spleen weights (mean): ruxolitinib 60 mg/kg P.O. twice daily, CHZ868 30 mg/kg P.O. daily
Experimental: (§3) Peripheral blood was isolated by submandibular bleeds.
Investigators were not blinded to the identity of mice or samples. Mice were treated for a total of 6 weeks before timed sacrifice and marrow/spleen harvested as above.

[5] = system: Jak2^V617F LSKs and MEPs; settings: 7 days of treatment; for down-regulation of STAT5 target gene expression, NES: vs MPN control
Experimental: Lineage-depleted marrow was isolated and then TdTonmato+ (Jak2^RL knock-in) or GFP+ (Jak2^RL knock-out) LSKs and MEPs were sorted on a FACSAria III directly into Trizol LS (Invitrogen) and stored at −80° C. until processing. RNA was subsequently isolated using the Direct-Zol Microprep Kit (Zymo Research, R2061) according to manufacturer's protocol and quantified using the Agilent High Sensitivity RNA ScreenTape (Agilent 5067-5579) on an Agilent 2200 TapeStation. cDNA was generated from 1 ng of input RNA using the SMART-Seq HT Kit (Takara 634455) at half reaction volume followed by Nextera XT (Illumina FC-131-1024) library preparation. cDNA and tagmented libraries were quantified using High Sensitivity D5000 ScreenTape (5067-5592) and High Sensitivity D1000 ScreenTape respectively (5067-5584). Libraries were sequenced on a NovaSeq at the Integrated Genomics Operation (IGO) at MSKCC.
Statistical analyses were performed using Student's t-test (normal distribution) using GraphPad Prism version 6.Oh (GraphPad Software, San Diego, CA). Kaplan-Meier curves were determined using the log-rank test. P<0.05 was considered statistically significant. The number of animals, cells and experimental replication can be found in the respective figure legends. FASTQ files were demultiplexed using a java script from Takara. FASTQ files were mapped and transcript counts were enumerated using STAR (genome version mm10 and transcript version ensembl XX). Counts were input into R and RNA-sequencing analysis using DESeq2. Gene set enrichment analysis was performed using the fgsea package with genesets extracted from the msigdbr package. Single sample gene set enrichment analysis was performed using the gsva package. Figures were generated using ggplot2 and tidyhetamps packages.

[6] = system: Ybx1; assay: Ybx1 quantitative RT-PCR in cKit+ bone marrow after 7 days of treatment; format: in vivo, mice; settings: sorted cKit+ cells
Experimental: Total RNA was extracted from magnetic-bead isolated cKit+ bone marrow (Miltenyi Biotec) using the Direct-zol RNA extraction kit (Zymo) per manufacturers' protocols respectively. Complementary DNA was then reverse transcribed using the Verso cDNA Synthesis kit (ThermoFisher Scientific). Ybx1 expression was evaluated by quantitative reverse-transcription (qRT) PCR using Taqman probes purchased from ThermoFisher (Mm00850878_g1) on the RealPlex thermocycler (ThermoFisher Scientific, Fairlawn, NJ).

[7] = system: UbcCreER-Jak2^RL MPN mice; assay: bone marrow myeloid progenitor frequencies by flow cytometry after 7 days of treatment; format: in vivo
[8] = system: Npm1GL hematopoietic cells; assay: cell number of Dre-induced mutant Npm1 GOLDI-Lox hematopoietic cells after 4-hydroxytamoxifen; format: cell-based, mice; settings: 7 days post administration
Experimental: FIGS. 30A-30D show the development of a GOLDI-Lox On/Off Dre/Cre Npm1 Mouse. […] A subset of diseased mice were then treated with tamoxifen (TAM) to induce Cre and lead to reversion of the mutant Npm1 allele back to WT Npm1; measured levels of survival (left panel), cKIT^+ cells in the peripheral blood (middle panel), and WBC counts (right panel) in mice that received TAM compared to vehicle treated mice are shown.
Based on previous data on mutant NPM1, it was expected that cells that lose the mutant Npm1 protein undergo differentiation and eventual apoptosis, ultimately leading to a loss of cell number. To validate the reversion of the mutant Npm1 GOLDI-Lox allele to WT, Dre-induced mutant Npm1 GOLDI-Lox hematopoietic cells were exposed to 4-hydroxytamoxifen (40HT) for Cre-recombinase induction, and cell number measured 7 days post 40HT administration using Cre^−; Npm1GL cells as a negative control.

[9] = system: Npm1/Flt3-ITD cKIT+ cells; assay: in vitro culture of cKIT+ leukemic cells with 4-OHT (PrestoBlue); format: cell-based, mice; settings: 72 hours of culture
[10] = system: Jak2^V617F/Tet2^f/f mutant cells; assay: Jak2^V617F/Tet2^f/f competitive transplant, tamoxifen at 9 weeks post-transplant; format: in vivo, mice; settings: double-mutant cells
Description: Dre mRNA was purchased from TriLink Biotechnologies (San Diego, CA) and electroporation carried out using the Neon Transfection System (ThermoScientific) per the manufacturer's protocol. Specifically, bone marrow donor cells were isolated from limb bones into PBS (pH 7.2) containing 2% fetal calf serum via centrifugation. After red blood cell lysis, single-cell suspensions were depleted of lineage-committed hematopoietic cells using a Lineage Cell Depletion Kit according to manufacturer's protocol (EasySep™, StemCell Technologies, Inc.). 2.5-3.0×10^6 lineage-depleted bone marrow was then washed in PBS and then resuspended in 135 uL Buffer T to which 15 μL of Dre mRNA (at 1 μg/μL) was quickly added and electroporated at the following conditions: 1700V for 20 ms×1 pulse. The cells were then pipetted into penicillin-streptomycin free StemSpan SFEM medium with thrombopoietin (TPO; 20 ng/mL; PeproTech) and stem cell factor (SCF; 20 ng/mL; PeproTech), cultured for two hours, and then subsequently harvested and washed/resuspended in phosphate buffered saline (PBS) and transplanted via lateral tail vein injection into lethally irradiated (900cGy) 6-8 week old C57BL/6J recipient mice at approximately 4×10^5 cells per recipient along with 50,000 un-electroporated whole bone marrow support cells. […]

[11] = system: Npm1^c-Lox-Flt3^GL-ITD leukemia; assay: long term TAM treatment of mice engrafted with Npm1^Lox-C Flt3^GL-ITD leukemia; format: in vivo; settings: TAM-chow diet
Description: FIGS. 19A-19H show reversible Flt3 mutagenesis in acute myeloid leukemia. Secondary transplant of Npm1^Lox-C Flt3^GL-ITD (20,000 cells) or Idh2^Lox-R140Q Flt3^GL-ITD (500,000) from FIGS. 18A-18E were engrafted into lethally irradiated secondary recipients with 500,000 CD45.1 WT cells. […]

[12] = system: mutant Npm1 GOLDI-Lox Nras^G12D disease; assay: bone marrow transplant of Dre-induced mutant Npm1 GOLDI-Lox / Nras^G12D, TAM vs vehicle; format: in vivo; settings: compared to vehicle treated mice
Experimental: FIGS. 30A-30D show the development of a GOLDI-Lox On/Off Dre/Cre Npm1 Mouse.
A bone marrow transplant of a Dre-induced mutant Npm1 GOLDI-Lox expressing a co-mutant Nras^G12D allele immediately after Dre induction was performed, and mice were monitored for disease development (FIG. 30D, left panel). Upon development of disease, a cohort (n=5) of mice was treated with tamoxifen (TAM) to induce Cre and lead to reversion of the mutant Npm1 allele back to WT Npm1.

[13] = system: Cre-negative Jak2^RL MPN bone marrow cells; settings: mouse, in vivo
Description: FIGS. 9D-9E show total bone marrow (BM) cellularity (femur) (FIG. 9D) and Myeloid progenitor (Lineage−cKit+Sca1−) (FIG. 9E) frequencies of MPN (CTRL) vs. tamoxifen (TAM) treated mice transplanted with Cre-negative JAK2^RL knock-in cells in competition with CD45.1 support at timed sacrifice 15 weeks (n=3-4 each; mean±s.e.m).
Jak2^RL and Jak2^RL/Tet2^f/f lines were crossed to UbcCreER tamoxifen-inducible Cre lines and RLTG dual-recombinase reporter lines.^17,24 Primary recipient mice transplanted with Dre mRNA-recombined UbcCreER-Jak2^RL or UbcCreER-Jak2^RL/Tet2^f/f bone marrow cells were bled every 3-4 weeks post-transplant to monitor disease status. Peripheral blood was isolated by submandibular bleeds. Complete blood counts were assessed on a ProCyte Dx (IDEXX Laboratories, Westbrook, ME) per manufacturer's instruction. […] To induce Cre and delete Jak2^V617F, mice were treated with tamoxifen (TAM; purchased from MedChemExpress) 100 mg/kg daily (dissolved in corn oil) by oral gavage ×4 followed by 14 days of TAM chow approx. 80 mg/kg daily (ENVIGO). […] For terminal tissue isolation, mice were euthanized with CO2 asphyxiation, and tissues were dissected and fixed with 4% paraformaldehyde for histopathological analysis. […] Bone marrow cell numbers were determined via an automatic cell counter (ViCell Blu, Beckman Coulter). […]

[14] = system: mice transplanted with Dre-electroporated Ubc:CreER-Jak2^RL bone marrow exhibiting MPN; assay: Jak2^RL knock-in/knock-out competitive transplant, tamoxifen-induced Jak2^V617F deletion; format: in vivo; settings: within 3-6 weeks following tamoxifen treatment, vs MPN control
Description: as §3

Molecule: COc1cc(Cc2cnc(N)nc2N)cc(OC)c1OC [trimethoprim]
- disease induction in the Flp Flt3/Npm1 model [1]: capable of inducing aggressive AML

Molecule: C=C[C@@H]1C[C@]1(NC(=O)[C@@H]1C[C@@H]2CN1C(=O)[C@H](C(C)(C)C)NC(=O)O[C@@H]1C[C@H]1CCCCCc1nc3ccc(OC)cc3nc1O2)C(=O)NS(=O)(=O)C1CC1.O [grazoprevir]
- peripheral blood counts with GZV treatment, CAG:DreStaPL-ODC mice [2]: monocytosis, mild anemia and mild thrombocytopenia
- peripheral blood counts with GZV treatment, Vav1:DreStaPL-ODC mice [2]: no significant differences
- recombination upon inhibition of NS3 proteolytic activity [3]: efficient recombination

Molecule: C=C[C@@H]1C[C@]1(NC(=O)[C@@H]1C[C@@H](Oc2ncc(OC)c3ccc(Cl)cc23)CN1C(=O)[C@@H](NC(=O)OC(C)(C)C)C(C)(C)C)C(=O)NS(=O)(=O)C1CC1 [asunaprevir]
- recombination upon inhibition of NS3 proteolytic activity [3]: efficient recombination

Molecule: N#CC[C@H](C1CCCC1)n1cc(-c2ncnc3[nH]ccc23)cn1 [ruxolitinib]
- CD45.2 chimerism in peripheral blood [4]: 37.7%
- mutant cell fraction in LSK stem-cell enriched population (mean) [4]: 87.6%
- Hct [4]: 85.8%
- spleen weights (mean) [4]: 235 mg
- down-regulation of STAT5 target gene expression, NES ([5]; GSEA of RNA-seq): −0.913
- erythroid pathway gene expression (heme metabolism), NES ([5]; GSEA of RNA-seq, LSKs): 1.45
- expression of Ybx1, Rel. exp [6]: 2.52
- GMP frequency [7]: 6.66%
- MEP frequency [7]: 35.3%

Molecule: CC(=O)Nc1cc(Oc2ccc3c(nc(Nc4ccc(F)cc4F)n3C)c2C)ccn1 [CHZ868]
- MEP, GMP, and LSK mutant allele burden ([4]; compared to vehicle/ruxolitinib-treated mice, not to the extent seen with Jak2^V617F deletion): Significant reductions
- Hct [4]: 50.3%
- spleen weights (mean) [4]: 76 mg

Molecule: 4-hydroxytamoxifen [4-OHT]
- cell number, Cre+; Npm1GL cells [8]: significant loss of cells
- cell number, Cre-; Npm1GL control cells ([8]; negative control): not observed
- cell number, Ubc:CreERT2 Npm1^c-Lox-Flt3^GL-ITD cells [9]: reduction in cell number
- cell number, FlpoERT2 Npm1^c-Frt Flt3^Frt-ITD cells ([9]; control without Cre-deletable allele): not

Molecule: CC/C(=C(\c1ccccc1)c1ccc(OCCN(C)C)cc1)c1ccccc1 [tamoxifen]
- CD45.2 chimerism in peripheral blood [4]: 17.3%
- mutant cell fraction in LSK stem-cell enriched population (mean) [4]: 28.7%
- spleen weights (mean) [4]: 125 mg
- hematologic parameters [10]: normalization
- peripheral blood mutant cell fraction [10]: reductions
- overall survival [11]: increase in overall survival
- WBC counts [12]: significant decrease
- cKIT+ cells in the peripheral blood [12]: significant decrease
- survival [12]: no significant difference
- phenotypes observed with Ubc:CreER-Jak2^V617F deletion, with tamoxifen in the absence of Jak2^V617F reversal [13]: not observed
- down-regulation of STAT5 target gene expression, NES ([5]; GSEA of RNA-seq): −1.51
- MAPK activity by RNA-Seq, NES ([5]; GSEA of down regulation of KRAS signaling targets, MEPs, vs vehicle): 1.35
- WBC (mean) [14]: 7.59 K/uL
- hematocrit (mean) [14]: 41.6%
- platelet (mean) [14]: 749 K/uL
- expression of Ybx1, Rel. exp [6]: 0.42
- GMP frequency [7]: 20.1%
- MEP frequency [7]: 14.2%
